Test results reported in publication PMC6540285, “Evaluation of Protein Kinase Inhibitors with PLK4 Cross-Over Potential in a Pre-Clinical Model of Cancer” (International Journal of Molecular Sciences, 2019).

Experiments:
GSK3A (GSK3 alpha) = GSK3A (GSK3 alpha) (Homo sapiens, UniProt P49840); assay: SelectScreen kinase profiling, ZLYTE; format: biochemical
RT and MB cells = assay: Cell cycle analysis (PI flow cytometry); format: cell-based; details: 2µM
Procedure: Cell cycle analysis was performed by flow cytometry of cells stained with Propidium Iodide (PI) (Thermo Fisher Scientific, Carlsbad, CA, USA) according to manufacturer’s instructions. Cells treated with the top PLK4i candidates and 0.1% DMSO (control) were fixed in 80% ethanol overnight, stained with PI, and then subjected to flow cytometric analysis using a BD Fortessa instrument (BD Biosciences, San Jose, CA, USA). Data was analyzed using Modfit LT from Verity Software House (Topsham, ME, USA). All experiments were performed in triplicate.

LRRK2 G2019S = LRRK2 G2019S (Homo sapiens, UniProt Q5S007, G2019S); assay: SelectScreen kinase profiling, Adapta; format: biochemical
CLK1 = CLK1 (Homo sapiens, UniProt P49759); assay: SelectScreen kinase profiling, ZLYTE; format: biochemical; details: CLK1, 10 µM
MAP3K14 (NIK) = MAP3K14 (NIK) (Homo sapiens, UniProt Q99558); assay: SelectScreen kinase profiling, LanthaScreen binding
PIK3C3 (hVPS34) = PIK3C3 (hVPS34) (Homo sapiens, UniProt Q8NEB9); assay: SelectScreen kinase profiling, Adapta; format: biochemical
PIK3C3 (hVPS34), sequence (Q8NEB9 whole entry): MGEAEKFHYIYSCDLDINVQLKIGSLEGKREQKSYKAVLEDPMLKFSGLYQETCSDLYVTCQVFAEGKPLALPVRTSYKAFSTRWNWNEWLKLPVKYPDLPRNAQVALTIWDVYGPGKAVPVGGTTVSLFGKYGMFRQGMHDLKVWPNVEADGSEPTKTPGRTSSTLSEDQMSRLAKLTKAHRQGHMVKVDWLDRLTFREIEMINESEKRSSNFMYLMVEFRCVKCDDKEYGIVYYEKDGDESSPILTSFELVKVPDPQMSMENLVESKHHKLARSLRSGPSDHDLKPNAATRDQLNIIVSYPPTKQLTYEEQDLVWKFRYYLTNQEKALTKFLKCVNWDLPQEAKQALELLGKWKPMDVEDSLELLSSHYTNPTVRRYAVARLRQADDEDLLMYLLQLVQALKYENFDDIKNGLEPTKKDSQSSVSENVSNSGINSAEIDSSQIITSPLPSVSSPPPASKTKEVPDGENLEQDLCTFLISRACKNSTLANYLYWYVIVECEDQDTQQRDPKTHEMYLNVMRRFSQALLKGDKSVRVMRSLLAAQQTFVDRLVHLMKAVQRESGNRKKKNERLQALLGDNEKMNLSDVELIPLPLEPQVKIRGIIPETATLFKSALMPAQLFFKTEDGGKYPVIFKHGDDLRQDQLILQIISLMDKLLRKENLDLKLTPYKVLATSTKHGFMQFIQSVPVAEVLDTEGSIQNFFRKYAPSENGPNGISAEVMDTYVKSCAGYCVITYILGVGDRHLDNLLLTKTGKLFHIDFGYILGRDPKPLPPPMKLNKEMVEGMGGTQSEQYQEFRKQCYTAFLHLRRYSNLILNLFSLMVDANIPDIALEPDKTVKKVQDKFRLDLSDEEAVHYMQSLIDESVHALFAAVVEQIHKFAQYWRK

GSK3A (GSK3 alpha), sequence (P49840 whole entry): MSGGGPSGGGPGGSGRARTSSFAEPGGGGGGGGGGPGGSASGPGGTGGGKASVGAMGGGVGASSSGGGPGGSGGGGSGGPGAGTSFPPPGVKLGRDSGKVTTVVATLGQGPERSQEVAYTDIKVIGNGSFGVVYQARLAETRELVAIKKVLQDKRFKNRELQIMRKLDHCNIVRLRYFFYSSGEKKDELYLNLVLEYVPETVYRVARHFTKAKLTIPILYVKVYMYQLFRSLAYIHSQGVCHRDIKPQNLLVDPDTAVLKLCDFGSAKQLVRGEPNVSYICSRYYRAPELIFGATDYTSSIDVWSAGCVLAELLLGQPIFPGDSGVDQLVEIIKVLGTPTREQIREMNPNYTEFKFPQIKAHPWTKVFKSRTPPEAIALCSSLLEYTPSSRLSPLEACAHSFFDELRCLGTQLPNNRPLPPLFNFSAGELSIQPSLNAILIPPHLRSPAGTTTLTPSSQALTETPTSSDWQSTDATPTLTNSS
CLK1, sequence (P49759 whole entry): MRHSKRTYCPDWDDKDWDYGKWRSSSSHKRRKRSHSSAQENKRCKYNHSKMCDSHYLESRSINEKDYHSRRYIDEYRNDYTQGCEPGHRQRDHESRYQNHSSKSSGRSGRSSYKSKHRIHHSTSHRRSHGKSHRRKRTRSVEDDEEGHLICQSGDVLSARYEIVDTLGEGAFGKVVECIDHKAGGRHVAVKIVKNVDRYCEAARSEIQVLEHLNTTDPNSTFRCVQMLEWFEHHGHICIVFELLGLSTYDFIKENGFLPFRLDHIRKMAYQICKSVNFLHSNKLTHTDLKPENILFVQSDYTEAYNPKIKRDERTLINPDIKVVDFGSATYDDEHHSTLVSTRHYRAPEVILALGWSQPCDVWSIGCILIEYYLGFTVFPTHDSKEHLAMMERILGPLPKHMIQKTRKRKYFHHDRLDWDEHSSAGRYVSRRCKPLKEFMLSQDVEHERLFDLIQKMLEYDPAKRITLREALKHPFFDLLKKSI
LRRK2 G2019S, sequence (Q5S007 whole entry G2019S): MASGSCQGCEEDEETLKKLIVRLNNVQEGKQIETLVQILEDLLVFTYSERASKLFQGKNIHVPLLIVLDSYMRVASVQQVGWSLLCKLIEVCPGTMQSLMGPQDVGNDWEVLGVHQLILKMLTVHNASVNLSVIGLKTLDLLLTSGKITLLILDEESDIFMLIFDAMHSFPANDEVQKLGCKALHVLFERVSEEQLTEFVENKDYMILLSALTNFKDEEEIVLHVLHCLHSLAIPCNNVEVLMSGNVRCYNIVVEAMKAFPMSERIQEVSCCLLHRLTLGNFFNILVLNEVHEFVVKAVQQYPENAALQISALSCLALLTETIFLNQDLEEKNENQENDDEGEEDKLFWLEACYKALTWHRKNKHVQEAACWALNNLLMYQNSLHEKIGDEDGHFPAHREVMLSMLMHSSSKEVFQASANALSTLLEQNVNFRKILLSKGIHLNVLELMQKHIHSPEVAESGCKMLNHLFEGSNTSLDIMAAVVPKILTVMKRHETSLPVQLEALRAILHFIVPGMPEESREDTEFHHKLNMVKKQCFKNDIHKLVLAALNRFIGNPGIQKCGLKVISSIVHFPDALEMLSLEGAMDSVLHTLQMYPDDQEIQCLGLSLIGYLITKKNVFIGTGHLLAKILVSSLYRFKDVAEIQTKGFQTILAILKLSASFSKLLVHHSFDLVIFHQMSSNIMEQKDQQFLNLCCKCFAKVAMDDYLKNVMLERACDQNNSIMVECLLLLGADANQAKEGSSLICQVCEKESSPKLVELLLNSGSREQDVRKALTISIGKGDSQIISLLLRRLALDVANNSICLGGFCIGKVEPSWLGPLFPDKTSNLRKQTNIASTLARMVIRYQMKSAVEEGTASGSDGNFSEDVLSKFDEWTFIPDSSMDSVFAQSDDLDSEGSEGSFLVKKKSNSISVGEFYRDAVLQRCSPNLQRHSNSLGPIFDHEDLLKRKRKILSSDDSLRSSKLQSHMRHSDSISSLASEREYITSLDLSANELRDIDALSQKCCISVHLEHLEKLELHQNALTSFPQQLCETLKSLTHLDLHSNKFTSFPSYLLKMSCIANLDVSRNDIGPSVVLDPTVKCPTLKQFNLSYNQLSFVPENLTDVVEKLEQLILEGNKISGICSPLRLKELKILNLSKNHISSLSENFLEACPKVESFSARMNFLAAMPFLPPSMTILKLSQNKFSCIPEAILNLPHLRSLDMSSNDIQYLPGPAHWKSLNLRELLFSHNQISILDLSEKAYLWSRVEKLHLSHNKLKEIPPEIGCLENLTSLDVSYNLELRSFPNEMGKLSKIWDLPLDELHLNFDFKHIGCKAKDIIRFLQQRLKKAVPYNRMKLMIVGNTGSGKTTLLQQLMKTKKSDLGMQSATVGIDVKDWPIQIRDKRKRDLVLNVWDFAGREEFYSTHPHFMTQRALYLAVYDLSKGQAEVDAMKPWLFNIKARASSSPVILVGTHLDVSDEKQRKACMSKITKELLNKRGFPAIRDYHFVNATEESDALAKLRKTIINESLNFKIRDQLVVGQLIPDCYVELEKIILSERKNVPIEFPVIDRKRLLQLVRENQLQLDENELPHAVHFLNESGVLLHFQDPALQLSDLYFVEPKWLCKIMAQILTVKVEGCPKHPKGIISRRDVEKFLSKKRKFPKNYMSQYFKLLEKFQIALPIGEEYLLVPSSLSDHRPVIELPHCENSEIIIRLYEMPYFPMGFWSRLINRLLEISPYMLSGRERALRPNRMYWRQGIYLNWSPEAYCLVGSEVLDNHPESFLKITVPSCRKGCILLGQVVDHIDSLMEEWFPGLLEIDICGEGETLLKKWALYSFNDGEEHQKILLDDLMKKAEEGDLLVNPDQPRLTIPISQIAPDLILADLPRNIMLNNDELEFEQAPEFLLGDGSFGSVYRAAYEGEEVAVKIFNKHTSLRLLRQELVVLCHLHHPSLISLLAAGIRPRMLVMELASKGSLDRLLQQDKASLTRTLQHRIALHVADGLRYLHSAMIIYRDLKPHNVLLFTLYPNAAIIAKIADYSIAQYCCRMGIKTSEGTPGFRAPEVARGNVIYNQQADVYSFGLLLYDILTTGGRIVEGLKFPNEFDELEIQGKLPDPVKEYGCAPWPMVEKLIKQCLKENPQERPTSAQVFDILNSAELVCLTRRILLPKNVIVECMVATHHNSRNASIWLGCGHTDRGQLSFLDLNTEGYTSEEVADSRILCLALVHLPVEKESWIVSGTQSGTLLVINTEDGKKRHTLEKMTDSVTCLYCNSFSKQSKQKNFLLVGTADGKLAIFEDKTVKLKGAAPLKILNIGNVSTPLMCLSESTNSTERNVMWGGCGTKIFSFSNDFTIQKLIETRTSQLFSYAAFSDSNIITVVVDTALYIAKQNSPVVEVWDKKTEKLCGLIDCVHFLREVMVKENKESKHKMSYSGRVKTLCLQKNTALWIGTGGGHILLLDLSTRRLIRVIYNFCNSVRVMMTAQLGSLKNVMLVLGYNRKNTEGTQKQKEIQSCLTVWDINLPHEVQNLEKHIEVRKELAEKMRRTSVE

## O=C(c1ccc(/C=C/c2n[nH]c3ccccc23)cc1)N1CCNCC1 [KW-2449]
GSK3A (GSK3 alpha)
  inhibition at 10 µM: 63%
RT and MB cells
  polyploidy (cell cycle analysis): induction of polyploidy with 2µM KW-2449 in all cell lines except DAOY
LRRK2 G2019S
  inhibition at 10 µM: 100%
CLK1
  inhibition at 10 µM: 99%
MAP3K14 (NIK)
  inhibition at 10 µM: 90%
PIK3C3 (hVPS34)
  inhibition at 10 µM: -3%
